Results: patent US11439606B2 (priority 2018, dated 2022)

Key:
Format in all cases: in vivo, rat
type I diabetic rats [1] = assay: Glycemia in STZ-induced type I diabetic rats treated with DMF; settings: DMF 8 mg/kg daily ip
type I diabetic rats [2] = assay: Cholesterol and triglyceride levels in type I diabetic rats treated with DMF; settings: versus untreated rats and known levels in non-diabetic rats; DMF 8 mg/kg daily ip
Description: (§1) Controlled test results were performed by, and under the direction of, the inventors, involving four type I diabetic rats, two of which were female and two were male, for the purpose of measuring the effectiveness of administering treatment in accordance with the present invention.

type I diabetic rats [3] = assay: Renal function tests (urea, serum creatinine) in type I diabetic rats treated with DMF; settings: DMF 8 mg/kg daily ip
Description: as §1

type I diabetic rats [4] = assay: Liver function tests (bilirubin, aspartate aminotransferase, gamma glutamyltransferase, alkaline phosphatase) in type I diabetic rats treated with DMF; settings: versus untreated control rats, DMF 8 mg/kg daily ip
Description: as §1

[5] = first rat, STZ-induced diabetes, average glycemia 440 mg % before treatment

For dimethylformamide [DMF], the “glycemia level versus untreated rats (FIG. 1)” value (type I diabetic rats [1]; female and male type I diabetic rats) was “remaining significantly below female and male rats not receiving treatment”, the “blood glucose level after seven days of treatment” value (type I diabetic rats [1]; [5]) was “below 100 mg %” and the “blood glucose level four days after treatment” value (type I diabetic rats [1]; [5]) was 94 mg %. For the same substance, the “blood glucose level after seven days of treatment” value (type I diabetic rats [1]; second rat, STZ-induced diabetes, average glycemia 526 mg % before treatment) was “below 120 mg %”, the “cholesterol levels (FIG. 3)” value (type I diabetic rats [2]) was “somewhat elevated” and the “triglycerides levels (FIG. 3)” value (type I diabetic rats [2]) was “significantly lowered”. The “levels of serum creatinine (FIG. 4)” value (type I diabetic rats [3]; versus untreated type I diabetic rats and known levels in non-diabetic rats) was “not only lower than the untreated, type I diabetic control group, but also lower than known levels of serum creatinine in non-diabetic female and male rats”, the “levels of urea (FIG. 4)” value (type I diabetic rats [3]; versus untreated type I diabetic rats) was “below that of the untreated type I diabetic rats” and the “liver function (FIG. 5)” value (type I diabetic rats [4]) was “either improved or not substantially different”.
